The source made the active and inactive calls. No cut-off for these calls is given here.
What was measured:
Rattus norvegicus [1] = experiment: Induction of catalepsy in po dosed rat measured for 0.5 to 18 hrs; assay type: organism-based; settings: in vivo
Mus musculus [2] = experiment: Neuroleptic activity in po dosed mouse assessed as inhibition of d-amphetamine sulfate-induced lethality administered for 0.5 hrs followed by d-amphetamine sulfate challenge measured after 24 hrs; assay type: functional
Rattus norvegicus [3] = experiment: Neuroleptic activity in po dosed rat assessed as concentration required to cause 50% reduction of motor activity; assay type: functional
Mus musculus [4] = experiment: Antidepressant activity in mouse assessed as inhibition of tetrabenazine hexamate-induced depression at 25 mg/kg, po administered 1 hr followed by tetrabenazine hexamate challenge measured after 30 mins; assay type: functional, organism-based; design: dose 25 mg/kg
Mus musculus [5] = experiment: Neuroleptic activity in mouse assessed as inhibition of d-amphetamine sulfate-induced lethality at 20 mg/kg, ip administered for 0.5 hrs followed by d-amphetamine sulfate challenge measured after 24 hrs; assay type: functional, organism-based; design: dose 20 mg/kg
Rattus norvegicus [6] = experiment: Neuroleptic activity in rat assessed as reduction of motor activity at 50 mg/kg, ip; assay type: functional, organism-based; design: dose 50 mg/kg
Mus musculus [7] = experiment: Antidepressant activity in po dosed mouse assessed as inhibition of tetrabenazine hexamate-induced depression administered 1 hr followed by tetrabenazine hexamate challenge measured after 30 mins; assay type: functional; settings: read-out: MED

CN1CCN(C2=Nc3cc(Cl)ccc3N(C)c3cscc32)CC1.O=C(O)/C=C/C(=O)O
ED50 (Rattus norvegicus [1]): 40 mg/kg
ED50 (Mus musculus [2]): 1.4 mg/kg
MDD50 (Rattus norvegicus [3]): 17 mg/kg
inhibition (Mus musculus [4]): inactive

CN1CCN(C2=Nc3cc(Cl)c(Cl)cc3N(C)c3cscc32)CC1.O=C(O)/C=C/C(=O)O
ED50 (Mus musculus [2]): 8 mg/kg
MDD50 (Rattus norvegicus [3]): 35.9 mg/kg
inhibition (Mus musculus [4]): inactive

CN1CCN(C2=Nc3ccc(Cl)cc3Nc3cscc32)CC1
ED50 (Rattus norvegicus [1]): 16 mg/kg
inhibition (Mus musculus [5]): inactive
MDD50 (Rattus norvegicus [3]): 12.3 mg/kg

OCCN1CCN(C2=Nc3ccccc3Nc3cscc32)CC1
MDD50 (Rattus norvegicus [3]): 33.1 mg/kg

CN1CCN(C2=Nc3cc(Cl)ccc3Nc3ccccc32)CC1 [CLOZAPINE]
ED50 (Rattus norvegicus [1]): 76 mg/kg
ED50 (Mus musculus [2]): 2 mg/kg
MDD50 (Rattus norvegicus [3]): 21 mg/kg
inhibition (Mus musculus [4]): inactive

CCN1c2ccccc2N=C(N2CCN(CCO)CC2)c2cscc21.O=C(O)/C=C/C(=O)O
MDD50 (Rattus norvegicus [3]): 50 mg/kg
inhibition (Mus musculus [4]): inactive

CN1CCN(C2=Nc3ccccc3N(C)c3c2csc3Cl)CC1.O=C(O)/C=C/C(=O)O
Activity (Rattus norvegicus [6]): inactive
inhibition (Mus musculus [5]): inactive
minimal effective dose (Mus musculus [7]): 3.1 mg/kg

CCCN1CCN(C2=Nc3cc(Cl)ccc3N(C)c3cscc32)CC1.O=C(O)/C=C/C(=O)O
inhibition (Mus musculus [5]): inactive
MDD50 (Rattus norvegicus [3]): 24 mg/kg
inhibition (Mus musculus [4]): inactive

CCN1c2ccccc2N=C(N2CCN(C)CC2)c2cscc21.O=C(O)/C=C/C(=O)O
ED50 (Mus musculus [2]): 5.7 mg/kg
MDD50 (Rattus norvegicus [3]): 23 mg/kg
minimal effective dose (Mus musculus [7]): 6.25 mg/kg

Cc1cc2c(cc1C)Nc1cscc1C(N1CCCCC1)=N2
inhibition (Mus musculus [5]): inactive
MDD50 (Rattus norvegicus [3]): 50 mg/kg

CN1CCN(C2=Nc3ccccc3N(C)c3cscc32)CC1.O=C(O)/C=C/C(=O)O
ED50 (Mus musculus [2]): 4.8 mg/kg
MDD50 (Rattus norvegicus [3]): 8.7 mg/kg
minimal effective dose (Mus musculus [7]): 3.1 mg/kg

c1ccc2c(c1)N=C(NCCN1CCCCC1)c1cscc1N2
MDD50 (Rattus norvegicus [3]): 37 mg/kg

CN(C)CCCN1c2ccccc2CCc2ccccc21 [IMIPRAMINE]
ED50 (Mus musculus [2]): > 20 mg/kg
MDD50 (Rattus norvegicus [3]): >50 mg/kg
minimal effective dose (Mus musculus [7]): 12 mg/kg

CN1c2ccc(Cl)cc2N=C(N2CCN(CCO)CC2)c2cscc21.Cl
ED50 (Rattus norvegicus [1]): 13 mg/kg
ED50 (Mus musculus [2]): 2 mg/kg
MDD50 (Rattus norvegicus [3]): 20.4 mg/kg
inhibition (Mus musculus [4]): inactive

CN(C)CCCN1c2ccccc2Sc2ccc(Cl)cc21 [CHLORPROMAZINE]
ED50 (Rattus norvegicus [1]): 7 mg/kg
ED50 (Mus musculus [2]): 0.6 mg/kg
MDD50 (Rattus norvegicus [3]): 2 mg/kg
inhibition (Mus musculus [4]): inactive

CCN1CCN(C2=Nc3ccccc3N(C)c3cscc32)CC1.O=C(O)/C=C/C(=O)O
minimal effective dose (Mus musculus [7]): 6.25 mg/kg

Cc1cc2c(cc1C)Nc1cscc1C(NCCN1CCCCC1)=N2
inhibition (Mus musculus [5]): inactive
MDD50 (Rattus norvegicus [3]): 50 mg/kg

Cc1ccc2c(c1)Nc1cscc1C(N1CCN(C)CC1)=N2
ED50 (Mus musculus [2]): 5.8 mg/kg
MDD50 (Rattus norvegicus [3]): 9 mg/kg

CCCN1CCN(C2=Nc3ccccc3Nc3cscc32)CC1
ED50 (Mus musculus [2]): 6 mg/kg
MDD50 (Rattus norvegicus [3]): 27 mg/kg

Cc1cc2c(cc1C)N(C)c1cscc1C(N1CCN(C)CC1)=N2.O=C(O)/C=C/C(=O)O
inhibition (Mus musculus [5]): inactive
MDD50 (Rattus norvegicus [3]): 58 mg/kg
inhibition (Mus musculus [4]): inactive

CN1c2ccccc2N=C(N2CCN(CCO)CC2)c2cscc21.O=C(O)/C=C/C(=O)O
inhibition (Mus musculus [5]): inactive
MDD50 (Rattus norvegicus [3]): 21.3 mg/kg
minimal effective dose (Mus musculus [7]): 12.5 mg/kg

COc1ccc2c(c1)Nc1cscc1C(N1CCN(C)CC1)=N2
ED50 (Rattus norvegicus [1]): 15 mg/kg
ED50 (Mus musculus [2]): 1.1 mg/kg
MDD50 (Rattus norvegicus [3]): 16.1 mg/kg

CCN1CCN(C2=Nc3ccccc3Nc3cscc32)CC1
MDD50 (Rattus norvegicus [3]): 6.3 mg/kg

Cc1cc2c(cc1C)Nc1cscc1C(N1CCN(C)CC1)=N2
MDD50 (Rattus norvegicus [3]): 26.2 mg/kg

CN(C)C1=Nc2ccccc2Nc2cscc21
MDD50 (Rattus norvegicus [3]): 26.5 mg/kg

CC(=O)OCCN1CCN(C2=Nc3cc(Cl)ccc3N(C)c3cscc32)CC1.O=C(O)/C=C/C(=O)O
ED50 (Mus musculus [2]): 3.2 mg/kg
MDD50 (Rattus norvegicus [3]): 26.7 mg/kg
inhibition (Mus musculus [4]): inactive

CCN1CCN(C2=Nc3cc(Cl)ccc3N(C)c3cscc32)CC1.O=C(O)/C=C/C(=O)O
ED50 (Mus musculus [2]): 1.1 mg/kg
MDD50 (Rattus norvegicus [3]): 7.3 mg/kg
inhibition (Mus musculus [4]): inactive

CN1CCN(C2=Nc3ccc(Cl)cc3N(C)c3cscc32)CC1
inhibition (Mus musculus [5]): inactive
minimal effective dose (Mus musculus [7]): 12.5 mg/kg

CN1CCN(C2=Nc3cc(Cl)ccc3Nc3cscc32)CC1
ED50 (Rattus norvegicus [1]): 16 mg/kg
MDD50 (Rattus norvegicus [3]): 13.9 mg/kg

CN1CCN(C2=Nc3ccccc3Nc3cscc32)CC1
ED50 (Rattus norvegicus [1]): 11 mg/kg
ED50 (Mus musculus [2]): 6 mg/kg
MDD50 (Rattus norvegicus [3]): 6.1 mg/kg

CCN1CCN(C2=Nc3ccccc3N(CC)c3cscc32)CC1.O=C(O)/C=C/C(=O)O
MDD50 (Rattus norvegicus [3]): 28 mg/kg
minimal effective dose (Mus musculus [7]): 25 mg/kg

CN1CCN(C2=Nc3ccccc3N(C)c3cscc32)CC1
ED50 (Rattus norvegicus [1]): 14 mg/kg
ED50 (Mus musculus [2]): 3.6 mg/kg
MDD50 (Rattus norvegicus [3]): 12 mg/kg
minimal effective dose (Mus musculus [7]): 3.1 mg/kg

CN1c2ccccc2N=C(N2CCNCC2)c2cscc21.O=C(O)/C=C/C(=O)O
Activity (Rattus norvegicus [6]): inactive
inhibition (Mus musculus [5]): inactive
minimal effective dose (Mus musculus [7]): 3.1 mg/kg

— ChEMBL document CHEMBL3227931, “10-(Alkylamino)-4H-thieno[3,4-b][1,5]benzodiazepines. A novel class of potential neuroleptic agents” (J Med Chem, 1979)
